Data from paper PMC3885398, “Evaluation of the Antitumor Effects of BPR1J-340, a Potent and Selective FLT3 Inhibitor, Alone or in Combination with an HDAC Inhibitor, Vorinostat, in AML Cancer” (PLoS ONE, 2014).

Experiments:
[1] = target: T1, FLT3 (wild-type, residues Y567-S993) (Homo sapiens, UniProt P36888); assay: FLT3 Kinase-Glo kinase assay; assay type: biochemical
T1 construct: FLT3 (residues Y567-S993); made in house
Procedure: All inhibitors were dissolved in dimethylsulfoxide (DMSO) at a stock concentration of 10 mM. […] The preparation of recombinant proteins, FLT3 (residues Y567-S993), VEGFR1 (residues R781-I1338) and VEGFR2 (residues V789-V1356), for biochemical kinase assay was described previously [29].
The FLT3 and VEGFR1/2 Kinase-Glo kinase assays were performed as reported by our earlier study [30].

FLT1 (VEGFR1) = target: T2, FLT1 (VEGFR1) (Homo sapiens, UniProt P17948); assay: VEGFR1 Kinase-Glo kinase assay; assay type: biochemical
T2 construct: VEGFR1 (residues R781-I1338); made in house
T2 sequence (P17948 781-1338): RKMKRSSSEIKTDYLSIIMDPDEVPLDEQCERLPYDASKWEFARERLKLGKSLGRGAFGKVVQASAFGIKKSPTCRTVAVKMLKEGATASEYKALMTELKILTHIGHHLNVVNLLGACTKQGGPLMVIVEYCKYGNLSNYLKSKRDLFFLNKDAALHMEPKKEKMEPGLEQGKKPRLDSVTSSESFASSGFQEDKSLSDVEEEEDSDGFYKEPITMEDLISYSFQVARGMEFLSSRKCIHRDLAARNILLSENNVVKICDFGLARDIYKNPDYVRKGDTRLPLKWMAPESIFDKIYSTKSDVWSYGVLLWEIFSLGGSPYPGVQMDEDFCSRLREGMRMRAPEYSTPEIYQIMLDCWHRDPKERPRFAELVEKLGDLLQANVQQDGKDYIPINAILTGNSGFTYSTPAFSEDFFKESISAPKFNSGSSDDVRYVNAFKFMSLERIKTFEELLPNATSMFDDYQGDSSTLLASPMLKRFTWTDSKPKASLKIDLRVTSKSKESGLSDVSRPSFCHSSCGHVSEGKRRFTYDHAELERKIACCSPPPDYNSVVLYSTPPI
Procedure: The FLT3 inhibitors, BPR1J-340 and AC220, were synthesized by our laboratory. The histone deacetylase inhibitor vorinostat (SAHA) was purchased from SelleckBio (Houston, TX, USA). All inhibitors were dissolved in dimethylsulfoxide (DMSO) at a stock concentration of 10 mM. The anti-FLT3 (sc-480, Santa Cruz Biotechnology, Santa Cruz, CA, USA), anti-pFLT3-Tyr591 (#3461, Cell Signaling Technology, Beverly, MA, USA) anti-STAT5 (#9363, Cell Signaling Technology), anti-pSTAT5–Tyr694 (#9351, Cell Signaling Technology), anti-cleaved poly ADP-ribose polymerase (PARP) (#9542, Cell Signaling Technology), anti-Mcl-1 (#4572, Cell Signaling Technology), anti-caspase 3 (#9662, Cell Signaling Technology) and anti-β-actin (Gtx110546, GeneTex, Irvine, CA, USA) antibodies were purchased for Western blotting analysis. The preparation of recombinant proteins, FLT3 (residues Y567-S993), VEGFR1 (residues R781-I1338) and VEGFR2 (residues V789-V1356), for biochemical kinase assay was described previously. The VEGFR3 (residues M800-Y1363) proteins were purchased from Upstate (Billerica, MA, USA).
The FLT3 and VEGFR1/2 Kinase-Glo kinase assays were performed as reported by our earlier study. […] The kinase inhibition profiling and inhibitory activity of FLT3-D835Y, CSF1R, and TRKA were determined by Invitrogen SelectScreen® kinase profiling service (Carlsbad, California, USA).

A431 = assay: Cell viability MTS assay; assay type: cell-based; conditions: Homo sapiens, A-431; A431, non-leukemia; read-out: Proliferation GI50
Procedure: (§1) Cell viability was assessed with an MTS assay as carried out as the method described previously. Cells were seeded in 96-well plates at a density of 10,000 cells per well for 16 hours and then treated with vehicle or various concentrations of compound in medium. The change in viable cells was quantitated using the MTS method (Promega, Madison, WI, USA) according to the manufacturer's recommended protocol or by cell counting under a microscope. The GC50 value was defined as the amount of compound that caused a 50% reduction in cell viability in comparison with DMSO-treated (vehicle) control and was calculated using Prism version 4 software (Graph-Pad Software, Inc., San Diego, CA, USA). The data are presented as the mean ± S.D. from three independent experiments. Cell growth were measured by trypan blue dye exclusion method. Cells (1×10^4 mL^−1) were cultured in 12-well plates for 24 hours and then treated with different amounts of test compound and the same volumes of vehicle for 72 hours. The number of viable cells was counted by trypan blue dye staining using a hemocytometer at the indicated time point after drug treatment. The result was expressed as the mean ± S.D. from triplicate determinations.

Detroit551 = assay: Cell viability MTS assay; assay type: cell-based; conditions: Homo sapiens, Detroit 551; Detroit551, non-leukemia; read-out: Proliferation GI50
Procedure: as §1

H1650 = assay: Cell viability MTS assay; assay type: cell-based; conditions: Homo sapiens, NCI-H1650; H1650, non-leukemia; read-out: Proliferation GI50
Procedure: as §1

H1975 = assay: Cell viability MTS assay; assay type: cell-based; conditions: Homo sapiens, NCI-H1975; H1975, non-leukemia; read-out: Proliferation GI50
Procedure: as §1

H2228 = assay: Cell viability MTS assay; assay type: cell-based; conditions: Homo sapiens, NCI-H2228; H2228, non-leukemia; read-out: Proliferation GI50
Procedure: as §1

HCC827 = assay: Cell viability MTS assay; assay type: cell-based; conditions: Homo sapiens; HCC827, non-leukemia; read-out: Proliferation GI50
Procedure: as §1

HCT-116 = assay: Cell viability MTS assay; assay type: cell-based; conditions: Homo sapiens; HCT-116, non-leukemia; read-out: Proliferation GI50
Procedure: as §1

Hep3B = assay: Cell viability MTS assay; assay type: cell-based; conditions: Homo sapiens, non-leukemia, read-out: Proliferation GI50
Procedure: as §1

Huh7 = assay: Cell viability MTS assay; assay type: cell-based; conditions: Homo sapiens, Huh-7; Huh7, non-leukemia; read-out: Proliferation GI50
Procedure: as §1

K562 = assay: Cell viability MTS assay; assay type: cell-based; conditions: Homo sapiens; K562, leukemia; read-out: Proliferation GI50
Procedure: as §1

MCF-7 = assay: Cell viability MTS assay; assay type: cell-based; conditions: Homo sapiens, MCF7; MCF-7, non-leukemia; read-out: Proliferation GI50
Procedure: as §1

MKN45 = assay: Cell viability MTS assay; assay type: cell-based; conditions: Homo sapiens, MKN-45; MKN45, non-leukemia; read-out: Proliferation GI50
Procedure: as §1

MiaPaCa-2 = assay: Cell viability MTS assay; assay type: cell-based; conditions: Homo sapiens, MIA PaCa-2; MiaPaCa-2, non-leukemia; read-out: Proliferation GI50
Procedure: as §1

NCIH460 = assay: Cell viability MTS assay; assay type: cell-based; conditions: Homo sapiens, NCI-H460; NCIH460, non-leukemia; read-out: Proliferation GI50
Procedure: as §1

RS4;11 = assay: Cell viability MTS assay; assay type: cell-based; conditions: Homo sapiens; RS4;11, leukemia, wild-type FLT3, FLT3-independent; read-out: Proliferation GI50 (GC50 in the text)
Procedure: as §1

RT4 = assay: Cell viability MTS assay; assay type: cell-based; conditions: Homo sapiens, RT-4; RT4, non-leukemia; read-out: Proliferation GI50
Procedure: as §1

U937 = assay: Cell viability MTS assay; assay type: cell-based; conditions: Homo sapiens, U-937; U937, leukemia; read-out: Proliferation GI50
Procedure: as §1

T1 sequence (P36888 567-993): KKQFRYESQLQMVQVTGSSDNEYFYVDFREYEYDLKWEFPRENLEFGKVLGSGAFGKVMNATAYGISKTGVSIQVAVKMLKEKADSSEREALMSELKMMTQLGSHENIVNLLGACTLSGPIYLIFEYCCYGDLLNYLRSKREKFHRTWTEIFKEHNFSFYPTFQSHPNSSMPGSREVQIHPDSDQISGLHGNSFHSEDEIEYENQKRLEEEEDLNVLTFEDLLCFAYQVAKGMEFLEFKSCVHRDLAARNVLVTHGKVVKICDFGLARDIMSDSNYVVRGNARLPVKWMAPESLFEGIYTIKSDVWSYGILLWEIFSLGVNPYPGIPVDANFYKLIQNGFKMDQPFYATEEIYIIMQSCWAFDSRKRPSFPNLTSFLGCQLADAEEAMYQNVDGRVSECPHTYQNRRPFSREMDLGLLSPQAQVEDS

Work on `CCc1cc(NC(=O)NCc2ccc(-c3cc(NC(=O)c4ccc(CN5CCN(C)CC5)cc4)[nH]n3)cc2)no1` [BPR1J-340, N1-(3-4-[([(5-ethyl-3-isoxazolyl)amino]carbonylamino)methyl]phenyl-1H-5-pyrazolyl)-4-[(4-methylpiperazino)methyl]benzamide] yielded an IC50 [1] of 0.029 ± 0.005 µM, an IC50 (FLT1 (VEGFR1)) of 0.164 ± 0.024 µM and a GI50 (A431) of 6.57 µM. The GI50 (Detroit551) was 8.34 µM, the GI50 (H1650) was 3.73 µM and the GI50 (H1975) was 2.61 µM. It also gave a GI50 (H2228) of 2.52 µM, a GI50 (HCC827) of 2.47 µM and a GI50 (HCT-116) of 9.33 µM. It also gave a GI50 (Hep3B) of 8.31 µM, a GI50 (Huh7) of 9.74 µM and a GI50 (K562) of 6.37 µM. It also gave a GI50 (MCF-7) of 11.3 µM, a GI50 (MKN45) of 3.58 µM and a GI50 (MiaPaCa-2) of 9.96 µM. For the same molecule, the GI50 (NCIH460) was 13.2 µM, the GI50 (RS4;11) was 0.77 ± 0.36 µM and the GI50 (RT4) was 7.03 µM. It also gave a GI50 (U937) of 2.4 µM.
